Data on 5 compounds can be found in patent US20240270762A1, “PENICILLIN-BINDING PROTEIN INHIBITORS” (priority 2021, published 2024).

The subject of assay [1] is A. baumannii ATCC 17978. As to the kind of experiment: microbe, parasite or virus in culture. Type of assay: cell-based. As to conditions: Acinetobacter baumannii, ATCC17978, read-out: MIC, A. baumannii ATCC 17978.
For assay [2], the system named is B. humptydooensis ATCC BAA-2767. As to the kind of experiment: microbe, parasite or virus in culture. Type of assay: cell-based. As to conditions: Burkholderia humptydooensis, ATCCBAA2767, read-out: Minimum inhibitory concentration (MIC), B. humptydooensis ATCC BAA-2767.
Assay [3] concerns P. aeruginosa CDC-0054. As to the kind of experiment: microbe, parasite or virus in culture. Type of assay: cell-based. As to conditions: Pseudomonas aeruginosa, CDC0054, read-out: Minimum inhibitory concentration, P. aeruginosa CDC-0054.
For assay [4], the system named is A. baumannii CDC-0045. As to the kind of experiment: microbe, parasite or virus in culture. The class given is cell-based. As to conditions: Acinetobacter baumannii, CDC0045, read-out: MIC, A. baumannii CDC-0045.
Assay [5] has as its system B. thailandensis ATCC 700388. As to the kind of experiment: microbe, parasite or virus in culture. Type of assay: cell-based. As to conditions: Burkholderia thailandensis, ATCC700388, read-out: Minimum inhibitory concentration (MIC), B. thailandensis ATCC 700388.
For assay [6], the system named is A. baumannii CDC-0033. As to the kind of experiment: microbe, parasite or virus in culture. Type of assay: cell-based. As to conditions: Acinetobacter baumannii, CDC0033, read-out: MIC, A. baumannii CDC-0033.
In assay [7] the test system is P. aeruginosa (ΔmexAB-oprM). As to the kind of experiment: Broth microdilution MIC in iron-depleted CAMHB (IDM). Type of assay: cell-based. As to conditions: Pseudomonas aeruginosa; iron-depleted CAMHB (IDM); […]; read-out: Minimum inhibitory concentration, P. aeruginosa ΔmexAB-oprM. (Broth dilution looks for growth in wells or tubes with falling amounts of substance.)

Assay [8] has as its system A. baumannii 1258916. As to the kind of experiment: microbe, parasite or virus in culture. The class given is cell-based, Acinetobacter baumannii. As to conditions: Acinetobacter baumannii, 1258916, read-out: MIC, A. baumannii 1258916.
The target in assay [9] is T1, PBP3 from Acinetobacter baumannii (ATCC 19606) (Acinetobacter baumannii, UniProt A0ABX6CK25).
T1 sequence (A0ABX6CK25 64-610): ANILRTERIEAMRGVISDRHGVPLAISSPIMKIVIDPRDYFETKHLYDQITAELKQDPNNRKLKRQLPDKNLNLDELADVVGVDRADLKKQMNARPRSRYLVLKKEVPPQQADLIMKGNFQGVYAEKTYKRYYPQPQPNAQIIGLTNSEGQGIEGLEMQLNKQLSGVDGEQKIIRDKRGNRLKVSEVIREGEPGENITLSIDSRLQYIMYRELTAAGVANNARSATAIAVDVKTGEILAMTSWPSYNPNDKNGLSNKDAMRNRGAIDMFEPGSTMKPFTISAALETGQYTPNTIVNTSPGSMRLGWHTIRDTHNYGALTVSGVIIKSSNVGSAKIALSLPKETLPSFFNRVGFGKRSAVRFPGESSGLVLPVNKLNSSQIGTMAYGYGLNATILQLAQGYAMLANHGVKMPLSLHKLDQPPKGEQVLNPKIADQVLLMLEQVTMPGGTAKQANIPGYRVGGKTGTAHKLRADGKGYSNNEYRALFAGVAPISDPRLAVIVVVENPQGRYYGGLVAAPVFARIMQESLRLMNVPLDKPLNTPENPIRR
As to the kind of experiment: Bocillin-FL fluorescence polarization competition binding, A. baumannii PBP3. As to conditions: fluorescence polarization competition binding assay using Bocillin-FL; read-out: A. baumannii PBP3 Potency. Summed up:
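Purified PBP was preincubated with inhibitor (E. coli PBP3 1.5 μM, 30 min; P. aeruginosa PBP3 0.75 μM, A. baumannii PBP3 0.2 μM and PBP1a 1 μM, 15 min), then Bocillin-FL (0.1 μM; 0.05 μM for PBP1a) added and FP read up to 60 min. EC50 = 50% loss of bound probe.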
Background: Polarisation of emitted light reports the rotation of a fluorescent probe.

Assay [10] relates to P. aeruginosa ATCC 35151. As to the kind of experiment: microbe, parasite or virus in culture. Type of assay: cell-based. As to conditions: Pseudomonas aeruginosa, ATCC35151, read-out: Minimum inhibitory concentration, P. aeruginosa ATCC 35151.

In brackets after ≈: the same amount, converted by molar mass.

Turning to `O=C(O)c1c(F)ccc2c1OB(O)[C@@H](NC(=O)[C@H](NC(=O)N1CCN(C3CCN(C(=O)Nc4cccc(O)c4F)CC3)C1=O)c1cc(F)c(O)c(O)c1Cl)C2` (single isomer, unassigned) [Example 446], the MIC in [1], in assay [2], in assay [3], in assay [4], in assay [5] and in assay [6] was below 1 µg/mL in each case. Moreover, the MIC in assay [7], in assay [8] and in [10] was below 1 µg/mL each time. Also, the IC50 in assay [9] was below 10 µM.
For `O=C(O)c1c(F)ccc2c1OB(O)[C@@H](NC(=O)[C@H](NC(=O)N1CCN(C3CCN(C(=O)Nc4ccc(O)cc4)CC3)C(=O)C1=O)c1cc(F)c(O)c(O)c1Cl)C2` (single isomer, unassigned) [Example 426], the MIC in assay [1] is below 1 µg/mL; in assay [2] it was below 1 µg/mL; in assay [3], below 1 µg/mL; in [4], 2 to 4 µg/mL (≈ 2.5 to 4.99 µM); in assay [5], below 1 µg/mL; in assay [6] it was 2 to 4 µg/mL (≈ 2.5 to 4.99 µM). Further, the values for the MIC in assay [7], in assay [8] and in assay [10] were below 1 µg/mL, 2 to 4 µg/mL (≈ 2.5 to 4.99 µM) and below 1 µg/mL, respectively. The IC50 in assay [9] is below 10 µM.
Turning to `O=C(O)c1c(F)ccc2c1OB(O)[C@@H](NC(=O)[C@H](NC(=O)N1CCN(C3CCN(C(=O)Nc4cccc(O)c4Cl)CC3)C1=O)c1cc(F)c(O)c(O)c1Cl)C2` [Example 447, (R)-3-((R)-2-(3-(1-((2-chloro-3-hydroxyphenyl)carbamoyl)piperidin-4-yl)-2-oxoimidazolidine-1-carboxamido)-2-(2-chloro-5-fluoro-3,4-dihydroxyphenyl)acetamido)-7-fluoro-2-hydroxy-3,4-dihydro-2H-benzo[e][1,2]oxaborinine-8-carboxylic acid], the MIC in assay [1], in assay [2], in assay [3], in assay [4], in [5] and in [6] was below 1 µg/mL in each case. The MIC in assay [7], in assay [8] and in [10] was below 1 µg/mL in each case. In assay [9], the IC50 is below 10 µM.
Regarding `O=C(O)c1c(F)ccc2c1OB(O)[C@@H](NC(=O)[C@H](NC(=O)N1CCN(C3CCN(C(=O)Nc4c(F)ccc(O)c4Cl)CC3)C1=O)c1cc(F)c(O)c(O)c1Cl)C2` (single isomer, unassigned) [Example 455], the MIC in [1], in assay [2], in [3], in assay [4], in assay [5] and in assay [6] was below 1 µg/mL throughout. Also, the MIC in assay [7], in assay [8] and in assay [10] was below 1 µg/mL each time. Besides, the IC50 in [9] is below 10 µM.
Take `O=C(O)c1c(F)ccc2c1OB(O)[C@@H](NC(=O)C(NC(=O)N1CCN(C3CCN(C(=O)Nc4cc(O)ccc4F)CC3)C(=O)C1=O)c1cc(F)c(O)c(O)c1Cl)C2` (stereo partly drawn) [Example 479, (3R)-3-(2-(2-chloro-5-fluoro-3,4-dihydroxyphenyl)-2-(4-(1-((2-fluoro-5-hydroxyphenyl)carbamoyl)piperidin-4-yl)-2,3-dioxopiperazine-1-carboxamido)acetamido)-7-fluoro-2-hydroxy-3,4-dihydro-2H-benzo[e][1,2]oxaborinine-8-carboxylic acid]: the MIC in [1] was below 1 µg/mL; in [2], 2 to 4 µg/mL (≈ 2.44 to 4.88 µM); in [3], below 1 µg/mL; in assay [4], below 1 µg/mL; in assay [5], below 1 µg/mL; in assay [6], 2 to 4 µg/mL (≈ 2.44 to 4.88 µM). For the same compound, the MIC in [7], in [8] and in assay [10] was below 1 µg/mL in each case. Also, the IC50 in assay [9] is below 10 µM.
